From article PMC8808171, “Nonselective TRPC channel inhibition and suppression of aminoglycoside-induced premature termination codon readthrough by the small molecule AC1903” (The Journal of Biological Chemistry, 2022)
Entries after “also recorded” stand apart in the source; their conditions may differ.

How the values were obtained:
[1] = biological target: T1, TRPC4 (Homo sapiens, UniProt Q9UBN4); test: Whole-cell patch-clamp recordings of EA-activated TRPC4 currents in HEK T-REx cells; assay type: cell-based; conditions: EA 30 nM
T1 construct: expressed in transfected cells; host or cells: HEK T-REx (tetracycline-induced)
Method: B) Representative current–voltage relationship for one (Tet+) HEK T-Rex cell expressing TRPC4, showing current after activation by EA (30 nM) and subsequent inhibition by addition of AC1903 (10 μM). C, quantified data from experiments represented by (A) (scatter plots showing current amplitudes at +100 mV (black circles) or −100 mV (white circles) from three independent experiments; bars represent mean ± SD; n = 3). ∗ indicates statistically significant difference between samples according to paired t test (p < 0.05). EA, (-)-englerin A; TRPC, transient receptor potential canonical.
For electrophysiology experiments, cells were plated at a low density of 20 to 30% onto round coverslips (13 mm diameter or 5 × 5 mm), and TRPC4 expression in HEK T-REx was induced with 1 μg ml^−1 tetracycline 24 h before experimentation. Experiments were carried out at room temperature. […] The patch-clamp currents were recorded using an Axopatch 200B amplifier, digitized by a Digidata 1440 and recorded to a computer using pCLAMP10 (Molecular Devices). The data were filtered at 1 kHz and analyzed offline using Clampfit 10.7 software and Origin 2019b software (OriginLab). […]
Inhibition of G418-induced premature stop codon readthrough […]

[2] = tested on: A498 cells; test: EA-mediated A498 cytotoxicity (WST-1 cell viability assay); assay type: cell-based; conditions: AC1903 100 μM; 100 nM EA; 8 h
Method: Cell viability assays were carried out using WST-1 Cell Proliferation Reagent (Merck). A498 cells were plated onto clear 96-well plates at 4000 cells per well and left to adhere for 24 h. Media was then removed, and replaced with fresh media containing 100 nM EA, in presence of either DMSO or 0.1 to 100 μM AC1903. Control wells were treated with vehicle (DMSO) only. To exclude any potential cytotoxic effects of AC1903 itself, cells were incubated with 0.1 to 100 μM AC1903 in absence of EA. Cells were treated in triplicate. Cells were incubated with compounds for 8 h. After 8 h, treatment media was removed and media containing WST-1 reagent (10 μl reagent +100 μl media per well) was added to each well and incubated for 1.5 h at 37 °C. Blank wells contained media and WST-1 reagent (no cells). […] Absorbance was then read at 440 nm and 650 nm (reference wavelength). To analyze data, the value of the 650 nm was subtracted from that of the 440 nm reading. Values across triplicate wells were averaged, and the value from the blank wells subtracted to account for background absorbance. […]
Inhibition of G418-induced premature stop codon readthrough
A498 cytotoxicity . […] Cell viability was calculated as % of control, and the effect of AC1903 was compared to control (0 µM ) (scatter plots showing data from three independent experiments; bars represent mean ± SD; n = 3). […]

T1 sequence (Q9UBN4 1-893 isoform Q9UBN4-2): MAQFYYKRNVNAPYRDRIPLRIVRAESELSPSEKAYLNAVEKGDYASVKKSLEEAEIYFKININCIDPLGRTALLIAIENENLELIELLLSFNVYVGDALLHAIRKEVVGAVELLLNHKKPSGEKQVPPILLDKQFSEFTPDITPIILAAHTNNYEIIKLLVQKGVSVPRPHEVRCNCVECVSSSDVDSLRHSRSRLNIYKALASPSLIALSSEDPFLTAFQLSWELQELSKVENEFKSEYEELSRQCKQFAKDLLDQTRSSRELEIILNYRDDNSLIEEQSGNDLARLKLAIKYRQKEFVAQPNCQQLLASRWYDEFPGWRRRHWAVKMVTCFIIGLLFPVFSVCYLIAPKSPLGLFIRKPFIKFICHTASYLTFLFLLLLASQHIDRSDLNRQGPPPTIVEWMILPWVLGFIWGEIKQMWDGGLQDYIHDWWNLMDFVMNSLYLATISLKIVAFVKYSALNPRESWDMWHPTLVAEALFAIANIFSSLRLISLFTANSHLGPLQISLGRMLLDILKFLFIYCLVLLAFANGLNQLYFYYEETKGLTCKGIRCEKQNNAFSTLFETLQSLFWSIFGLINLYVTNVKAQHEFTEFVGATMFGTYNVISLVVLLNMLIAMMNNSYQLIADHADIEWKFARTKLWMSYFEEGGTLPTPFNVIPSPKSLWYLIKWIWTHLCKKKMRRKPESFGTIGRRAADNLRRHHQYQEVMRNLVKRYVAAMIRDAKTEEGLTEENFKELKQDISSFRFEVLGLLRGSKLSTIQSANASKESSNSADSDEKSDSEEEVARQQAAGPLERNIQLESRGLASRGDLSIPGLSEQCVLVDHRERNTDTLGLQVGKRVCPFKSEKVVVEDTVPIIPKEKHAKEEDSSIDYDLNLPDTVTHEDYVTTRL

inhibition of EA-activated currents ([1]; 10 μM AC1903, whole-cell patch clamp): fully and reversibly inhibited | inhibition of EA-activated TRPC4 currents, cumulative addition ([1]; AC1903 0.3–30 μM): concentration-dependent inhibition
SMILES: c1ccc(Cn2c(NCc3ccco3)nc3ccccc32)cc1 [AC1903]
effect on EA-mediated A498 cytotoxicity [2]: inhibits EA-mediated; also recorded: inhibited EA-mediated A498 cytotoxicity
